Experiments:
[1] = system: male C57Bl/6J mice exposed to cigarette smoke; assay: Mouse model of emphysema/COPD, chronic cigarette smoke exposure; type: in vivo; conditions: chronic smoke exposure 6 months, PPS once a day
Protocol: A mouse model of emphysema was used. Acute and chronic exposure of mice to cigarette smoke lead to lung responses that in part mimic the inflammatory and structural changes observed in COPD. In this model male C57Bl/6J mice are subjected to acute and chronic smoke exposure, with normal room air being the control situation. In the acute study mice were exposed to either room air or to the smoke of five cigarettes (approximately 12 mg of tar and 0.9 mg of nicotine) for 20 minutes. In the chronic study mice were exposed to either room air or to the smoke of three cigarettes/day for 5 days/week for 6 months. The 4 groups of mice were then further divided so that mice within each group also received PPS via an inhaled route.
The animals in the chronic study received PPS once a day for the duration of the experiment. At the completion of the experiment animals were killed and the lungs fixed intratracheally with formalin (5%) and lung volume was measured by water displacement. The lung tissue was prepared for histochemistry and immunohistochemistry, the lung tissues being stained for hematoxylin-eosin and/or periodic acid-Schiff or with antibodies to the macrophage marker Mac-3. The level of desmosine in the lung tissue was also determined. Desmosine is an elastin-specific imino acid; the assessment of desmosine in the lung is taken as an indicator of the lung elastin content. […]

[2] = target: T1, Elastase (Homo sapiens, UniProt P08246); assay: Elastase activity on collagen substrate; type: biochemical; conditions: collagen coated wells, 37° C., 30 minutes
T1 sequence (P08246 30-267): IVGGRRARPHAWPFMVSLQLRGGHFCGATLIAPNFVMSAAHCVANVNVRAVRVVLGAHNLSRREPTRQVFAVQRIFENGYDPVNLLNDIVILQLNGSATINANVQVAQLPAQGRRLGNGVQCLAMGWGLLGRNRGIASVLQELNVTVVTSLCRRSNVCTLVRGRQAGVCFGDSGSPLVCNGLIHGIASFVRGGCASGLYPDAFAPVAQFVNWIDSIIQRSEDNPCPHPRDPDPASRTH
Protocol: Elastase activity was also measured using a physiological substrate, collagen. For these experiments collagen was coated onto the wells of a microplate. Tris buffer (50 μl) was added together with 25 μl of either inhibitor (PPS or other sulfated polysaccharides) or buffer. The plate was incubated at 37° C. for 30 minutes, before staining the wells for protein. After drying the wells at room temperature the remaining colour was dissolved by adding 200 μl of lysis solution (10% w/v SDS in DMSO) and the OD measured at […]. Control experiments include collagen without enzyme digestion as 100% values and with enzyme digestion but without inhibitor as 0% values.

[3] = target: T2, IL-4 (Homo sapiens, UniProt P05112); assay: IL-4 dependent TF-1.8 cell proliferation (luciferase); type: cell-based
T2 construct: made in house
T2 sequence (P05112 25-153): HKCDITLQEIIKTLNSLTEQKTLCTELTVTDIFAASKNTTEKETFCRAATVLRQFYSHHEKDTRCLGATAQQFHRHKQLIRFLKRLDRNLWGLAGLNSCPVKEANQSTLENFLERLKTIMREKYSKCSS
From the text: PPS inhibited the proliferation of a human IL-4 responsive cell line. This occurs at very low doses and is not due to a toxic effect of the pentosan polysulfate because other, similarly sulfated polysaccharides, at the same concentrations of IL-4 and polysaccharide have no effect. These experiments utilize the TF-1.8 cells. TF-1.8 cells are a subclone of the TF-1 cells that have been selected for growth in IL-4 or IL-5. TF-1 cells were originally established from a bone marrow sample from a person with severe pancytopenia. These cells are dependent on IL-3 or GM-CSF for long term growth and are responsive to a variety of cytokines including IL-4, […].
TF-1.8 cells have been transfected with the firefly luciferase gene contained in the expression vector, pPGK-puromycin-luciferase (Coombe et al, 1998, supra). […] The cells are counted with a Coulter Z2 Particle Counter and Size Analyzer (Coulter Electronics, England) and routinely 2.5×10^4 cells are added to microplate wells that contain either no IL-4 (negative control) or various dilutions of IL-4. When the effect of PPS, or other sulfated polysaccharides is to be measured, the wells also contain various concentrations of these molecules. […]
The size of the sulfated xylose polysaccharides is also an important component of its anti-IL-4 activity. […] Light emissions are detected on a Victor 1420 Multi-label counter (Wallac, Turku, Finland). […]

Inhibition of elastase activity on collagen (in words) [2]: effective elastase inhibitor | Inhibition of IL-4 dependent proliferation of TF-1.8 cells (in words) ([3]; dose-response, FIG. 5): markedly inhibits | Percentage Inhibition of IL-4 induced TF-1.8 cell proliferation ([3]; inhibitor 5.0 μg/ml, IL-4 2.5 ng/ml, 48 hours): 58%
Substance: Pentosan polysulfate [PPS]
Overall effect in chronic COPD model [1]: acting as an anti-inflammatory agent
